Laboratory results reported in article PMC11219871, “Epigenetic-based differentiation therapy for Acute Myeloid Leukemia” (Nature Communications, 2024).
pIC50: −log10 of the molar value. Where two headings read alike, the source gives them in different places.

Columns and labels:
[1] = molecular target: HDAC1 (Homo sapiens, UniProt Q13547); assay: HDAC enzymatic assay, fluorescence-labeled substrate; assay type: biochemical; settings: for inhibition at 10 µM: source data of Fig. 1B
[2] = molecular target: T1, HDAC10 (Homo sapiens, UniProt Q969S8); assay: HDAC assay (Eurofins); assay type: biochemical
T1 construct: purchased Eurofins (contracted assay service)
T1 sequence (Q969S8 1-669): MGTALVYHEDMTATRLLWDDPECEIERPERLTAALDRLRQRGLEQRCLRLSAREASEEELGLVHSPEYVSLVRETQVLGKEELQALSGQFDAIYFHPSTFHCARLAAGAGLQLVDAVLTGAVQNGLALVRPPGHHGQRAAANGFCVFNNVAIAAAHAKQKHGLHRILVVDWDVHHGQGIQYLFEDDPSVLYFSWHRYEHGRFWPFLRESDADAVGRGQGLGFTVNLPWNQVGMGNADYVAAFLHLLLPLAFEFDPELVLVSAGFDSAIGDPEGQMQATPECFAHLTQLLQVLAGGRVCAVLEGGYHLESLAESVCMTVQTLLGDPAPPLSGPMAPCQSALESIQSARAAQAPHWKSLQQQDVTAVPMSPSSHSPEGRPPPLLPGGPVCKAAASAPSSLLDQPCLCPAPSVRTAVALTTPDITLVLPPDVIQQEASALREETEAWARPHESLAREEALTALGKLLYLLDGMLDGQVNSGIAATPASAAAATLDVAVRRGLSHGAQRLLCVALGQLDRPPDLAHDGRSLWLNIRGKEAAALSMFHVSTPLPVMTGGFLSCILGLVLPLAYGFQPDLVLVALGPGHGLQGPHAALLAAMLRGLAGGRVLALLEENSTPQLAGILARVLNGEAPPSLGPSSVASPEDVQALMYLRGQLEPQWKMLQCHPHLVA

[3] = molecular target: T2, EZH2 (Y641N) (Homo sapiens, UniProt Q15910, Y641N); assay: Epigenetic panel (BPS Bioscience); assay type: biochemical
T2 construct: purchased BPS Bioscience; Eurofins (HDAC4, 5, 7-11)
Text: The selectivity of CM-444 and CM-1758 against other epigenetic targets, including histone demethylase (JMJD2A, JMJD2B, JMJD2C, JMJD2D, JMJD2E, JMJD3, JMJD1A, LSD1, Jarid1A, Jarid1B, Jarid1C, FBXL10, FBXL11, JHDM1D, JMJD1B, PHF8, LSD2 and UTX); histone acetyltransferases (GCN5, P300); histone methyltransferases (G9a, GLP, MLL1, SET7/9, SUV39H1, SUV39H2, PRMT1, PRMT3, PRMT4, PRMT5, PRMT6, PRMT8, PRMT9, NSD1, NSD2, EZH1, EZH2, SETDB1, SETD2, SET8, SUV4-20H1, SMYD2, SMYD3, DOT1L, EZH2 (A677G), EZH2 (A677G), EZH2 (A738T), EZH2 (Y641S), EZH2 (P132S), EZH2 (Y641C), EZH2 (Y641F), EZH2 (Y641H), EZH2 (Y641N)); bromodomains (ATAD2B, ATAD2A, BRD1, BRD9, BPTF/FALZ, CeCR2, BRPF3, BRD3 (BD1 + BD2), BAZ2B, WDR9, TAF1 (BD2), TAF1L (BD2), TAF1L (BD1 + BD2), BRD2 (BD1), BRD2 (BD2), BRD2 (BD1 + BD2), BRD3 (BD1), BRD3 (BD2), BRD4 (BD1), BRD4 (BD2), BRD4 (BD1 + BD2), BRDT (BD1), BRDT (BD1 + BD2), CREBBP, SMARCA2A, SMARCA4/BRG1); DNA methyltranferases (DNMT1, DNMT3A/3L and DNMT3B/3L), and sirtuin histone deacetylases (SIRT1, SIRT2, SIRT3, SIRT5 and SIRT6), were determined by BPS Bioscience (http://www.bpsbioscience.com/index.ph). Binding experiments were performed in duplicate at a concentration of 10 μM.

[4] = system: HL-60, ML-2, MOLM-13 and MV4-11; assay: γ-H2AX immunofluorescence (DNA damage); assay type: cell-based; settings: daily treatment 48 hours, four AML cell lines
Procedure: authors should analyze this e.g by gH2AX immunofluorescence staining.
As positive control, HL-60 cells irradiated with an acute dose of 30 J/m2 UV for 2 minutes were
(see Reviewer Figure 22).

[5] = Pharmacokinetic study in plasma samples; assay type: in vivo, mouse; settings: 10 mg/kg i.p.; for CL/F: read-out: Norm. Cl/F (converted)
Procedure: Compounds CM-444 and CM-1758 were measured in plasma using an Acquity UPLC system (Waters, Manchester, UK) coupled to an Xevo-TQ MS triple-quadrupole mass spectrometer with ESI source.
Compound solutions were prepared by dissolving the solid in dimethyl sulfoxide (DMSO) and this solution was made up to a final volume by the addition of a mixture of Tween 20 and 0.9% NaCl (1/1/8, v-v:v, DMSO/Tween 20/saline). For the pharmacokinetic experiments, a drug dosage of 10 mg/kg was administered as a single intraperitoneal injection to RAG-2 mice. Blood was collected at predetermined post-injection times (15 min, and 1, 2, 4, 8 and 24 h) into EDTA-containing tubes, and plasma was obtained via centrifugation (4 °C, 657 g, 5 min) and stored at −80 °C until analysis.
Chromatographic separation was performed by gradient elution at 0.6 mL/min using an Acquity UPLC BEH C18 column (50 × 2.1 mm, 1.7 µm; Waters). The mobile phase consisted of A: water with 0.1% formic acid, B: methanol with 0.1% formic acid. The autosampler temperature was set at 10 °C and the column temperature at 40 °C. For detection and quantification, the ESI operated in the positive mode was set up for multiple reaction monitoring. The collision gas used was ultra-pure argon at a flow rate of 0.15 mL/min.
Quantification was achieved by external calibration using matrix-matched standards. Concentrations were calculated using a weighted least-squares linear regression (W = 1/x). Calibration standards were prepared by adding the appropriate volume of diluted compound solution (made in a mixture of methanol and water, 50:50, v-v) to aliquots of 20 µL of blank plasma. The calibration standard and sample preparation were as follows: 3% formic acid in methanol was added to precipitate the proteins. The mixture was then vortex-agitated for 1 min and centrifuged at 16,522 g for 10 min at 4 °C. A 5-µL aliquot of the supernatant solution was injected into the LC-MS/MS system for analysis. Frozen plasma samples were thawed at room temperature, vortex mixed thoroughly and subjected to the above-described extraction procedure.
The pharmacokinetic parameters were obtained by fitting the blood concentration-time data to a non-compartmental model with WinNonlin software (Pharsight, Mountain View, CA).

[6] = RAG-2, mouse, plasma, intraperitoneal, read-out: plasmatic concentration, Mean
[7] = RAG-2, mouse, plasma, ip, mice, NCA
[8] = RAG-2, mouse, plasma, ip, mice, NCA, read-out: Norm. Vz/F

HDAC1, sequence (Q13547 whole entry): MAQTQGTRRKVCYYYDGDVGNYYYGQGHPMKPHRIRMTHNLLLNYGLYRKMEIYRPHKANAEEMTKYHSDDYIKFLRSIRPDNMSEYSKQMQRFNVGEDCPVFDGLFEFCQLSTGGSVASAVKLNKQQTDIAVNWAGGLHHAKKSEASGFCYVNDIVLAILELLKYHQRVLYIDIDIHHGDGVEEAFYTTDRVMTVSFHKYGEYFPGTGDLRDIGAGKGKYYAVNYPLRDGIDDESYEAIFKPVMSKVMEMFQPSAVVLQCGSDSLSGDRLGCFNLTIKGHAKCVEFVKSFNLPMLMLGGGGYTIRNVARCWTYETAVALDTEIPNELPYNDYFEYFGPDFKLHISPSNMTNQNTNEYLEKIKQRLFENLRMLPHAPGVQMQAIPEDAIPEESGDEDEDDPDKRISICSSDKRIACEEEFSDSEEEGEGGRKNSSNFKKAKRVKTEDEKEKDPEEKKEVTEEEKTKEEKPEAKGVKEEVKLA
T2 sequence (Q15910 whole entry Y641N): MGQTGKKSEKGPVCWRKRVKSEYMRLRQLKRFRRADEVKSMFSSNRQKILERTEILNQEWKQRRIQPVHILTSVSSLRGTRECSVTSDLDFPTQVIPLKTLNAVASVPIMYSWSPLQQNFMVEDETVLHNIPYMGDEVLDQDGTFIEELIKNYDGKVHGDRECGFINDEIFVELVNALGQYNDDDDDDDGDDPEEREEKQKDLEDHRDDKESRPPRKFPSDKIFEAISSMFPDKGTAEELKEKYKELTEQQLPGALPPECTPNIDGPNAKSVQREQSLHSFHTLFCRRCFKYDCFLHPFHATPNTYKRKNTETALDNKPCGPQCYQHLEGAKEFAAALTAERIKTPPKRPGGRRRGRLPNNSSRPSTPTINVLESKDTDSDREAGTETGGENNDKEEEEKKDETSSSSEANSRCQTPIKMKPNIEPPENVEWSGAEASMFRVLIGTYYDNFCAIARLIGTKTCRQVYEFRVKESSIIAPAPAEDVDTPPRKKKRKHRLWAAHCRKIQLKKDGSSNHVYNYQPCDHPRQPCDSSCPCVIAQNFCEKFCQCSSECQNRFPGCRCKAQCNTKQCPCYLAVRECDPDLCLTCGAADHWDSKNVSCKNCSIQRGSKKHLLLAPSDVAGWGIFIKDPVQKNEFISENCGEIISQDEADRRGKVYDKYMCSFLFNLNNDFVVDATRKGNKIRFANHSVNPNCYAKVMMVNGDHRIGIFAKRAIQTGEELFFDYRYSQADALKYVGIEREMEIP
T2 sequence (O75530 whole entry partner): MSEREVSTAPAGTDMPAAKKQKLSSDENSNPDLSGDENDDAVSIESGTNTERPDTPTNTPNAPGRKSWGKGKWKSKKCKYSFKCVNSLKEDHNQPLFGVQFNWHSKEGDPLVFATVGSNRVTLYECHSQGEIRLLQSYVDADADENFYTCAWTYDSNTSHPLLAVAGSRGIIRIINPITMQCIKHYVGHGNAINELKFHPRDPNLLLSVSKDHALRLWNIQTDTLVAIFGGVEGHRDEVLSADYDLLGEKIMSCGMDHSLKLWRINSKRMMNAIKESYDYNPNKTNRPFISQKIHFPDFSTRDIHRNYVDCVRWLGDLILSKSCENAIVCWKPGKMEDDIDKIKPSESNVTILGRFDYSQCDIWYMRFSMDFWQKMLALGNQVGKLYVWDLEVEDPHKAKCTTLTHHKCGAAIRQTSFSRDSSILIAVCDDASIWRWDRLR
T2 sequence (Q15022 whole entry partner): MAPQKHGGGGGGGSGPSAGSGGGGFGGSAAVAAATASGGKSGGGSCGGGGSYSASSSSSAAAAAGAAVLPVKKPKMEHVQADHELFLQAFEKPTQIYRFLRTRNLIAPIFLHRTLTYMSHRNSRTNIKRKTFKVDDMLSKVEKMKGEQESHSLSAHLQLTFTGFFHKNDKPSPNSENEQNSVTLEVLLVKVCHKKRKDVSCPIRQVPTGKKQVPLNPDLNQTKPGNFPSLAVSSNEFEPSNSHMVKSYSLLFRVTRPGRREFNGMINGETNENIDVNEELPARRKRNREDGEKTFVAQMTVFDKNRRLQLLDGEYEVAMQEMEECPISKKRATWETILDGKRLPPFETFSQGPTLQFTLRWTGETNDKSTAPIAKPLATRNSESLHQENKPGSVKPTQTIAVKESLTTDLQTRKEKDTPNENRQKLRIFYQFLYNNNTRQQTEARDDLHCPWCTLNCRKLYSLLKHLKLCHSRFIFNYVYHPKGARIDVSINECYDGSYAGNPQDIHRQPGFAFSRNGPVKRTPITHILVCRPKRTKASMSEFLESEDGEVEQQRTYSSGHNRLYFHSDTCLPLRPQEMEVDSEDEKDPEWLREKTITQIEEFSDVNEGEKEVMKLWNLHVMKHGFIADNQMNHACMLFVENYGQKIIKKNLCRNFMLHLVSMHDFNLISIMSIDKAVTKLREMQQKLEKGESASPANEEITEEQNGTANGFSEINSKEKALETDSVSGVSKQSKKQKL
T2 sequence (Q09028 whole entry partner): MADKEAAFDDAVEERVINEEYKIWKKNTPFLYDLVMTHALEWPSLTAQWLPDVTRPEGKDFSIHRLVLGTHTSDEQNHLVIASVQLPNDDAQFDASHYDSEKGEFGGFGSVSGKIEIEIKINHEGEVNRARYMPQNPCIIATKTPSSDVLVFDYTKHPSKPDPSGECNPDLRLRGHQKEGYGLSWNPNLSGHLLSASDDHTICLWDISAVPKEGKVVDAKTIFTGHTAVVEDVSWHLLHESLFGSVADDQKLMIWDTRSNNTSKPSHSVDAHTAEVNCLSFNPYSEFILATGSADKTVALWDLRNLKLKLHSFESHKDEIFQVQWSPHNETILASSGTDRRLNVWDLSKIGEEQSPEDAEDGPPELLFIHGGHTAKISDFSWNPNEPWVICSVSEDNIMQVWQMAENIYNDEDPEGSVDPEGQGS
T2 sequence (Q6ZN18 whole entry partner): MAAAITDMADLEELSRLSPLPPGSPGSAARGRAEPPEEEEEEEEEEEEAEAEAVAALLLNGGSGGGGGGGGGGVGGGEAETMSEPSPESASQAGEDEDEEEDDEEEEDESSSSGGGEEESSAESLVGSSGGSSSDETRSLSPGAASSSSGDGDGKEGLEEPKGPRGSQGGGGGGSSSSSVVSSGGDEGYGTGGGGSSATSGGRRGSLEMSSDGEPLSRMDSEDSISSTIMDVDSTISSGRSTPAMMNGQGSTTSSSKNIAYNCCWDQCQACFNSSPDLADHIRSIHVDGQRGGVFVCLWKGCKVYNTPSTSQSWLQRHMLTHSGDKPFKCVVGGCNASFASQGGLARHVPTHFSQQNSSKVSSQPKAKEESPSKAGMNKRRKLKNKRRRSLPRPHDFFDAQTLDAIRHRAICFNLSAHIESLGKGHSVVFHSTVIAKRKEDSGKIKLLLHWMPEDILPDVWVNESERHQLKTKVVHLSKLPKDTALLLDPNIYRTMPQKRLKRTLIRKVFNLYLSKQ

Compound | inhibition at 10 µM [1] | pIC50 ([1]; read-out: IC50) | pIC50 [2] | inhibition at 10 µM [2] | inhibition at 10 µM [3] | DNA damage (γ-H2AX) [4] | Cl/F ([5]; mice, NCA, mean) | concentration at 0.25 h [5, 6] | concentration at 1 h [5, 6] | concentration at 2 h [5, 6] | concentration at 4 h [5, 6] | concentration at 8 h [5, 6] | CL/F [5, 7] | Vd/F [5, 8] | clearance ([5]; mice) | also measured
COc1cc2nc(-c3ccc(C)o3)cc(NCC3CCN(c4ncc(C(=O)NO)cn4)CC3)c2cc1OC [CM-444, 2-[4-[[[6,7-dimethoxy-2-(5-methyl-2-furyl)-4-quinolyl]amino]methyl]-1-piperidyl]pyrimidine-5-carbohydroxamic acid] | 90% | 8.18 | 7.82 | 96% | 2% | do not induced DNA damage | 0.53 L/h | 916 nM | 203 nM | 27.7 nM | 5 nM | 2.4 nM | 355 mL/min/kg | 262 L/kg | 0.53 lh^−1 | AUClast ([5]; mice, NCA, mean): 0.91615 µM·h; Vz/F ([5]; mice, NCA, mean): 6.56 L; t½ ([5]; mice, NCA, mean): 8.46 h; concentration at 24 h ([5]; RAG-2, mouse, plasma, intraperitoneal, 24 h, read-out: plasmatic concentration, Mean): 0.9 nM
COc1cc2nc(-c3cc(C)oc3C)cc(NCC3CCN(c4ncc(C(=O)NO)cn4)CC3)c2cc1OC [CM-1758, 2-[4-[[[2-(2,5-dimethyl-3-furyl)-6,7-dimethoxy-4-quinolyl]amino]methyl] -1-piperidyl]pyrimidine-5-carbohydroxamic acid] | 90% | 8.37 | 7.54 | 98% | 0% | do not induced DNA damage | 0.26 L/h | 1700 nM | 352 nM | 77.5 nM | 17.1 nM | 4.3 nM | 173 mL/min/kg | 28.6 L/kg | 0.26 lh^−1 | pIC50 ([1]; read-out: HDAC1 IC50): 8.36; plasmatic concentration, Mean ([5]; 24 h): BLOQ; AUC(0-t) ([5]; RAG-2, mouse, plasma, ip, mice, NCA, mean): 1.69 µM·h; Vd/F ([5]; RAG-2, mouse, plasma, ip, mice, NCA, mean, read-out: Vz/F): 0.72 L; half-life ([5]; RAG-2, mouse, plasma, ip, mice, NCA, mean, read-out: t½ (converted)): 1.95 h
